According to ChEMBL document CHEMBL3352491, “Novel semicarbazides and ureas of primaquine with bulky aryl or hydroxyalkyl substituents: synthesis, cytostatic and antioxidative activity” (Eur J Med Chem, 2014):

How the values were obtained:
[1] = Cytostatic activity against human H460 cells assessed as growth inhibition after 3 to 4 days by MTT assay; format: functional, cell-based; conditions: NCI-H460
SW-620 = test: Cytostatic activity against human SW620 cells assessed as growth inhibition after 3 to 4 days by MTT assay; format: functional, cell-based
MCF7 = test: Cytostatic activity against human MCF7 cells assessed as growth inhibition after 3 to 4 days by MTT assay; format: functional, cell-based
Lipoxygenase = Lipoxygenase (Glycine max, UniProt Q39829); test: Inhibition of soybean LOX using sodium linoleate as substrate by spectrophotometry
HeLa = test: Cytostatic activity against human HeLa cells assessed as growth inhibition after 3 to 4 days by MTT assay; format: functional, cell-based
L1210 = test: Cytostatic activity against mouse L1210 cells assessed as growth inhibition after 3 to 4 days by MTT assay; format: functional, cell-based
[2] = Cytostatic activity against human Molt4/C8 cells assessed as growth inhibition after 3 to 4 days by MTT assay; format: functional, cell-based; conditions: MOLT-4
[3] = Antioxidant activity assessed as DPPH scavenging activity at 100 uM after 20 mins by spectrophotometry; format: physicochemical
[4] = Antioxidant activity assessed as DPPH scavenging activity at 100 uM after 60 mins by spectrophotometry; format: physicochemical; conditions: 1 h
CCRF-CEM = test: Cytostatic activity against human CEM cells assessed as growth inhibition after 3 to 4 days by MTT assay; format: functional, cell-based
[5] = Antioxidant activity assessed as inhibition of lipid peroxidation at 100 uM by spectrophotometry; format: physicochemical
[6] = Cytostatic activity against human MIAPaCa2 cells assessed as growth inhibition after 3 to 4 days by MTT assay; format: functional, cell-based; conditions: MIA PaCa-2
[7] = biological target: Lipoxygenase (Glycine max) (UniProt Q39829); test: Inhibition of soybean LOX using sodium linoleate as substrate at 100 uM by spectrophotometry

Row | SMILES | IC50 (SW-620) | IC50 (MCF7) | IC50 (Lipoxygenase; read-out: IC50) | IC50 (HeLa) | IC50 (L1210) | Activity [3] | Activity [4] | IC50 (CCRF-CEM) | inhibition (INH) [5] | inhibition [7] | IC50 (Lipoxygenase) | IC50 [1] | IC50 [2] | IC50 [6]
1 | CC(Cc1ccc(O)c(O)c1)C(C)Cc1ccc(O)c(O)c1 (configuration not stated) [NORDIHYDROGUAIARETIC ACID] |  |  | 28 µM |  |  | 80% | 91% |  |  | 84% |  |  |  | 
2 | COc1ccc(C(=NNC(=O)NNC(=O)NCCCC(C)Nc2cc(OC)cc3cccnc23)c2ccc(OC)cc2)cc1 (configuration not stated) | ≥ 100 µM | 1 µM | 75 µM | 50 µM | 7.5 µM | 37% | 84% | 8 µM | 82% |  |  | 5 µM | 12 µM | 11 µM
3 | COc1cc(NC(C)CCCNC(=O)NNC(=O)NCCO)c2ncccc2c1 (configuration not stated) | > 100 µM | 13 µM |  | 196 µM | > 250 µM | Not Active | 20% | > 250 µM | 27% |  | Not Active | > 100 µM | > 250 µM | ≥ 250 µM

Further lines, with some results ahead:

Row | IC50 (SW-620) | IC50 (MCF7) | IC50 (Lipoxygenase; read-out: IC50) | IC50 (HeLa) | IC50 (L1210) | Activity [3] | Activity [4] | IC50 (CCRF-CEM) | inhibition (INH) [5] | inhibition [7] | IC50 (Lipoxygenase) | SMILES | IC50 [1] | IC50 [2] | IC50 [6]
4 | > 100 µM | 6 µM | 60 µM | > 250 µM | > 250 µM | 5% | 14% | > 250 µM | 98% |  |  | COc1ccc(C(=NNC(=O)NCCCC(C)Nc2cc(OC)cc3cccnc23)c2ccc(OC)cc2)cc1 (configuration not stated) | > 100 µM | > 250 µM | > 250 µM
5 | > 100 µM | 5 µM | 60.5 µM | 129 µM | 34 µM | 19% | 26% | 10 µM | 77% |  |  | COc1ccc(/C(=N/NC(=O)NCCCC(C)Nc2cc(OC)cc3cccnc23)c2ccccc2)cc1 (configuration not stated) | > 100 µM | ≥ 250 µM | 155 µM
